By GI50 is commonly meant the concentration giving 50% growth inhibition. Read a low GI50 as greater sensitivity of the cells.

The values below come from US20120129884A1, “PHOTOCHEMOTHERAPEUTIC HETEROCYCLIC AGENTS HAVING ANTIPROLIFERATIVE AND ANTINEOPLASTIC ACTIVITY” (UNIVERSITA DEGLI STUDI DI PADOVA, priority 2009, published 2012).

Data set [1] deals with colon adenocarcinoma (LoVo). Put plainly: Phototoxicity after UV-A irradiation, MTT test. Type of data set: cell-based, human. To be noted: mean ± SEM. Here is the method:
(§1) The evaluation of phototoxic activity was carried out in some human tumour cell lines: T-cell leukaemia (Jurkat), chronic myeloid leukaemia (K-562), colon adenocarcinoma (LoVo) and breast adenocarcinoma (MCF-7). Cellular survival experiments were carried out without irradiation to verify an eventual toxicity of photosensitizer in the dark, and then after two times of irradiation (10 and 15 min of UV-A, which correspond to 2.5 and 3.75 J/cm^2, respectively), using lamps which emit mainly at 365 nm. Cell survival was checked after 72 h of compound incubation or after 72 h from UVA irradiation by Mosmann's MTT reduction test (3-[4,5-dimethyltiazol-2yl] 2,5-diphenyl tetrazolium bromide), (T. Mossman, Rapid colorimetric assay for cellular growth and survival: application to proliferation and cytotoxicity assays, J. Immunol. Meths. 1983, 65, 55-63). […] In Table 2, there are GI50 values, that is the compound concentration required for 50% cell survival, for each cell line and for every time of irradiation.

Data set [2] has as its system T-cell leukaemia (Jurkat). Put plainly: Phototoxicity after UV-A irradiation, MTT test. Type of data set: cell-based, human. Conditions: mean ± SEM. Here is the method: as §1
(Formazan colour is commonly taken as a measure of viable cells.)

Data set [3] relates to breast adenocarcinoma (MCF-7). Put plainly: Phototoxicity after UV-A irradiation, MTT test. The data set is classed as cell-based, human. To be noted: mean ± SEM. Here is the method:
as §1

Data set [4] has as its system chronic myeloid leukaemia (K-562). In words: Phototoxicity after UV-A irradiation, MTT test. Type of data set: cell-based, human. To be noted: mean ± SEM. Here is the method:
as §1

Data set [5] concerns plasmid (pBR322) DNA. Put plainly: Plasmid strand break / DNA photodamage experiments (Fpg, Endo III). Type of data set: biochemical. Conditions: pBR322, irradiated, Fpg and Endo III. Here is the method:
After having assessed a weak affinity toward this macromolecule in the dark by such spectroscopic techniques as linear dichroism and fluorimetric titrations, some plasmid (pBR322) strand break experiments were carried out to check an eventual DNA photodamage by compounds. The formation of open circular or linear DNA from a supercoiled plasmid DNA was monitored by the separation of the three forms using agarose gel horizontal electrophoresis. Beside the formation of frank strand breaks, oxidative damages to purine and pyrimidine bases were also evaluated, incubating the irradiated mixture with the repair enzyme Fpg (Formamidopyrimidine glycosylase) and Endo III (Endonuclase III), respectively. (B. Epe, M. Pflaum, S. Boiteux, DNA damage induced by photosensitizers in cellular and cell-free systems, Mut. Res. 1993, 299, 135-145; T. A. Ciulla, J. R. Van Camp, E. Rosenfeld, I. Kochevar, Photosensitization of single-strand breaks in pBR322 DNA by Rose Bengal, Photochem. Photobiol. 1989, 49, 293-298).

In data set [6] the test system is human tumour cell lines (Jurkat, K-562, LoVo, MCF-7). Put plainly: Phototoxicity / dark toxicity in all tested human tumour cell lines, MTT test. The data set is classed as cell-based. Conditions: after UVA irradiation. Here is the method:
as §1

Where [7] appears, read: Homo sapiens, light or radiation study, 72 h, UV-A 2.5 J/cm^2, 72 h after irradiation.
Setting [8] is: Homo sapiens, light or radiation study, 72 h, UV-A 3.75 J/cm^2, 72 h after irradiation.
Where [9] appears, read: Homo sapiens, MCF7, light or radiation study, 72 h, MCF-7, UV-A 2.5 J/cm^2, 72 h after irradiation.
[10] abbreviates: Homo sapiens, MCF7, light or radiation study, 72 h, MCF-7, UV-A 3.75 J/cm^2, 72 h after irradiation.
Where [11] appears, read: Homo sapiens, K562, light or radiation study, 72 h, K-562, UV-A 2.5 J/cm^2, 72 h after irradiation.
Setting [12] is: Homo sapiens, K562, light or radiation study, 72 h, K-562, UV-A 3.75 J/cm^2, 72 h after irradiation.
The mark [13] stands for this setting: UV-A 2.5 J/cm^2, 72 h after irradiation.
Setting [14] is: UV-A 3.75 J/cm^2, 72 h after irradiation.
[15] abbreviates: MCF-7, UV-A 2.5 J/cm^2, 72 h after irradiation.
Where [16] appears, read: MCF-7, UV-A 3.75 J/cm^2, 72 h after irradiation.
Where [17] appears, read: K-562, UV-A 2.5 J/cm^2, 72 h after irradiation.
[18] abbreviates: K-562, UV-A 3.75 J/cm^2, 72 h after irradiation.

For `O=c1ccc2ccc3occc3c2o1` [Ang, angelicin, reference compound], the GI50 in data set [1] (setting [7]) was 3600 ± 400 nM; in data set [1] (setting [8]) it was 1500 ± 300 nM; in data set [2] (setting [7]), 1000 ± 200 nM; in data set [2] (setting [8]), 900 ± 100 nM; in data set [3] (setting [9]), 4400 ± 500 nM; in data set [3] (setting [10]), 1500 ± 200 nM. Besides, the figures for the GI50 in data set [4] (setting [11]) and in data set [4] (setting [12]) were 1200 ± 100 nM and 1000 ± 100 nM, respectively.

As for `O=c1[nH]c2c(cc1S(=O)(=O)c1ccccc1)CCc1ccn(S(=O)(=O)c3ccccc3)c1-2` [Compound 9a, 1,7-bis(Phenylsulfonyl)-1,4,5,9-tetrahydro-8H-pyrrolo[3,2-h]quinolin-8-one], the GI50 in data set [1] (setting [7]), in data set [1] (setting [8]), in data set [2] (setting [7]), in data set [2] (setting [8]), in data set [3] (setting [9]) and in data set [3] (setting [10]) was more than 20000 nM each time. Also, the GI50 in data set [4] (setting [11]) and in data set [4] (setting [12]) was more than 20000 nM throughout.

In the case of `O=c1[nH]c2c(cc1S(=O)(=O)c1ccccc1)CCc1cc[nH]c1-2` [Compound 9b, 7-(Phenylsulfonyl)-1,4,5,9-tetrahydro-8H-pyrrolo[3,2-h]quinolin-8-one], the GI50 in data set [1] (setting [7]), in data set [1] (setting [8]), in data set [2] (setting [7]), in data set [2] (setting [8]), in data set [3] (setting [9]) and in data set [3] (setting [10]) was more than 20000 nM in each case. For the same compound, the GI50 in data set [4] (setting [11]) and in data set [4] (setting [12]) was more than 20000 nM in each case.

With `N#Cc1cc2c([nH]c1=O)-c1c(ccn1S(=O)(=O)c1ccccc1)CC2` [Compound 9c, 1-(Phenylsulfonyl)-1,4,5,9-tetrahydro-8H-pyrrolo[3,2-h]quinolin-7-carbonitrile-8-one], the GI50 in data set [1] (setting [13]), in data set [1] (setting [14]), in data set [2] (setting [13]), in data set [2] (setting [14]), in data set [3] (setting [15]) and in data set [3] (setting [16]) was more than 20000 nM in each case. Further, the GI50 in data set [4] (setting [17]) and in data set [4] (setting [18]) was more than 20000 nM in each case.

Consider `Cn1ccc2c1-c1[nH]c(=O)c(S(=O)(=O)c3ccccc3)cc1CC2` [Compound 9d, 1-Methyl-7-(phenylsulfonyl)-1,4,5,9-tetrahydro-8H-pyrrolo[3,2-h]quinolin-8-one], for which the GI50 in data set [1] (setting [7]), in data set [1] (setting [8]), in data set [2] (setting [7]), in data set [2] (setting [8]), in data set [3] (setting [9]) and in data set [3] (setting [10]) was more than 20000 nM each time. For the same compound, the GI50 in data set [4] (setting [11]) and in data set [4] (setting [12]) was more than 20000 nM each time.

With `O=c1[nH]c2c(cc1S(=O)(=O)c1ccccc1)CCc1ccn(Cc3ccccc3)c1-2` [Compound 9e, 1-Benzyl-7-(phenylsulfonyl)-1,4,5,9-tetrahydro-8H-pyrrolo[3,2-h]quinolin-8-one], the GI50 came to 2600 ± 200 nM in data set [1] (setting [7]); 2200 ± 200 nM in data set [1] (setting [8]); 1300 ± 200 nM in data set [2] (setting [7]); 1100 ± 100 nM in data set [2] (setting [8]); 4000 ± 600 nM in data set [3] (setting [9]); 1700 ± 700 nM in data set [3] (setting [10]). For the same compound, the GI50 in data set [4] (setting [11]) was 4800 ± 500 nM; in data set [4] (setting [12]) it was 3300 ± 500 nM.

With `O=c1[nH]c2c(cc1S(=O)(=O)c1ccccc1)CCc1ccn(-c3ccccc3)c1-2` [Compound 9f, 1-Phenyl-7-(phenylsulfonyl)-1,4,5,9-tetrahydro-8H-pyrrolo[3,2-h]quinolin-8-one], the GI50 in data set [1] (setting [7]), in data set [1] (setting [8]), in data set [2] (setting [7]), in data set [2] (setting [8]), in data set [3] (setting [9]) and in data set [3] (setting [10]) was more than 20000 nM in each case. For the same compound, the GI50 in data set [4] (setting [11]) and in data set [4] (setting [12]) was more than 20000 nM each time.

For the compound `Cc1ccc(Cn2ccc3c2-c2[nH]c(=O)c(S(=O)(=O)c4ccccc4)cc2CC3)cc1` [Compound 9g, 1-(p-Methyl-benzyl)-7-(phenylsulfonyl)-1,4,5,9-tetrahydro-8H-pyrrolo[3,2-h]quinolin-8-one], the 50% growth inhibitory concentration (GI50) was 2700 ± 100 nM in data set [1] (setting [7]); 2300 ± 200 nM in data set [1] (setting [8]); 1600 ± 100 nM in data set [2] (setting [7]); 1200 ± 200 nM in data set [2] (setting [8]); 3800 ± 500 nM in data set [3] (setting [9]); 2400 ± 200 nM in data set [3] (setting [10]). In addition, the GI50 came to 2700 ± 200 nM in data set [4] (setting [11]) and 2400 ± 100 nM in data set [4] (setting [12]).

Take `COc1ccc(Cn2ccc3c2-c2[nH]c(=O)c(S(=O)(=O)c4ccccc4)cc2CC3)cc1` [Compound 9h, 1-(p-Methoxy-benzyl)-7-(phenylsulfonyl)-1,4,5,9-tetrahydro-8H-pyrrolo[3,24]quinolin-8-one]: the GI50 in data set [1] (setting [13]) is 2800 ± 300 nM; in data set [1] (setting [14]), 2000 ± 200 nM; in data set [2] (setting [13]) it was 1600 ± 200 nM; in data set [2] (setting [14]), 1200 ± 200 nM; in data set [3] (setting [15]) it was 4200 ± 700 nM; in data set [3] (setting [16]) it was 1800 ± 100 nM. Also, the GI50 turned out to be 3100 ± 400 nM in data set [4] (setting [17]) and 2500 ± 200 nM in data set [4] (setting [18]).

Regarding `CCOC(=O)c1cc2c([nH]1)-c1[nH]c(=O)c(S(=O)(=O)c3ccccc3)cc1CC2` [Compound 9i, Ethyl 7-(phenylsulfonyl)-1,4,5,9-tetrahydro-8H-pyrrolo[3,2-h]quinolin-8-one-2-carboxylate], the GI50 in data set [1] (setting [7]) was found to be 5500 ± 200 nM; in data set [1] (setting [8]) it was 4600 ± 400 nM; in data set [2] (setting [7]), 3500 ± 400 nM; in data set [2] (setting [8]), 2500 ± 200 nM; in data set [3] (setting [9]), 6100 ± 200 nM; in data set [3] (setting [10]), 4300 ± 700 nM. For the same compound, the GI50 in data set [4] (setting [11]) came out at 6100 ± 200 nM; in data set [4] (setting [12]), 5400 ± 600 nM.

In the case of `CCOC(=O)c1cc2c(n1C)-c1[nH]c(=O)c(S(=O)(=O)c3ccccc3)cc1CC2` [Compound 9j, Ethyl 1-methyl-7-(phenylsulfonyl)-1,4,5,9-tetrahydro-8H-pyrrolo[3,2-h]quinolin-8-one-2-carboxylate], the concentration for 50% growth inhibition (GI50) in data set [1] (setting [7]) was found to be 1100 ± 100 nM; in data set [1] (setting [8]), 1000 ± 100 nM; in data set [2] (setting [7]), 700 ± 100 nM; in data set [2] (setting [8]), 500 ± 100 nM; in data set [3] (setting [9]), 1200 ± 100 nM; in data set [3] (setting [10]) it was 1000 ± 100 nM. Further, the GI50 is 1000 ± 100 nM in data set [4] (setting [11]) and 900 ± 100 nM in data set [4] (setting [12]). Also, in data set [5], the “DNA photodamage (photocleavage, oxidative damages in DNA bases)” value is “do not induce DNA photodamage”. The “GI50 (phototoxic)” value in data set [6] is “submicromolar”.

As for `CCOC(=O)c1cc2c(n1Cc1ccc(C)cc1)-c1[nH]c(=O)c(S(=O)(=O)c3ccccc3)cc1CC2` [Compound 9l, Ethyl 1-(p-methyl-benzyl)-7-(phenylsulfonyl)-1,4,5,9-tetrahydro-8H-pyrrolo[3,2-h] quinolin-8-one-2-carboxylate], the GI50 came to 1600 ± 200 nM in data set [1] (setting [7]); 1000 ± 200 nM in data set [1] (setting [8]); 1500 ± 200 nM in data set [2] (setting [7]); 1200 ± 100 nM in data set [2] (setting [8]); 1700 ± 300 nM in data set [3] (setting [9]); 1500 ± 200 nM in data set [3] (setting [10]). Further, the GI50 in data set [4] (setting [11]) stood at 1200 ± 300 nM; in data set [4] (setting [12]) it was 1000 ± 100 nM.
